Results: patent publication US11793782B2, “Therapeutic agents for neurodegenerative diseases” (priority 2017, dated 2023)

Assays:
Npc1−/− and Npc1+/+ mice = assay: Gait analysis (CatWalk), NPC mouse study; assay type: in vivo; details: 0.1 g/kg from weaning, eight weeks of age
Protocol: Separate groups of Npc1^−/− and Npc1^+/+ mice were left untreated, as controls. Gait analysis was performed on mice at eight weeks of age using a CatWalk®15.0 system according to manufacturer's instructions (Noldus, Nottingham, UK). Five runs were recorded per animal. CatWalk® parameters measured were: • 1. Stand Mean: average duration (s) of paws in contact with glass plate; • 2. Step Cycle: duration (s) between two consecutive contacts of the same paw; • 3. Duty Cycle: percentage of time paws in contact with plate compared with time to complete a step cycle; • 4. Step Sequence (AB): percentage of time spent walking in LF-RH-RF-LH alternating pattern (LF: left front; RH: right hind; RF: right front; LH left hind); • 5. Cadence: step per seconds in a trial; • 6. Diagonal Support: percentage of time with simultaneous contact of diagonal paws with the glass plate (RF&LH or RH&LF). Motor Function Analysis

[1] = tested on: fibroblast cell line from an NPC patient; assay: Relative lysosomal volume via LysoTracker, NPC fibroblasts; assay type: cell-based, human; details: 1 mM
Protocol: A fibroblast cell line from an NPC patient was treated for 3 days with N-acetyl-DL-leucine (1 mM) and relative lysosomal volume was quantified via LysoTracker, a fluorescent dye that accumulates in acidic organelles. Increased LysoTracker fluorescence is indicative of an increase in lysosomal size and/or number, and is a hallmark of NPC cells.

[2] = tested on: Hexb−/− mouse (Sandhoff disease model); assay: Step cycle, Sandhoff mouse; assay type: in vivo; details: Sandhoff mice, 0.1 g/kg from 3 weeks of age, 12 weeks of age
Protocol: Step cycle is the length of time taken during locomotion by a limb from the time it leaves the ground until it leaves the ground on the next occasion. Step cycle time was assessed at 12 weeks of age in untreated and acetyl-leucine treated Sandhoff model mice. Acetyl-leucine treatment constituted 0.1 g/kg body weight acetyl-leucine from 3 weeks of age.

[3] = tested on: frontotemporal dementia with parkinsonism patient; assay: Case study, frontotemporal dementia with parkinsonism; assay type: in vivo, human; details: frontotemporal dementia with parkinsonism
Source text: After approximately one month of acetyl-leucine treatment, medication was stopped and the patient was re-examined 13 days later.

SCA 1 patient = assay: Case study, Spinocerebellar Ataxia (SCA) 1; assay type: in vivo, human
Source text: The patient in this case study was a person who was genetically diagnosed with Spinocerebellar Ataxia (SCA) 1. Before treatment, the patient had severe problems with speaking and swallowing, tremor of both arms, spasticity and moderate ataxia of stance and gait. The patient also had problems sleeping.

[4] = tested on: Lewy Body dementia patient; assay: Case study, Lewy Body dementia; assay type: in vivo, human
Protocol: The patient started taking acetyl-leucine (3 g/day for one week; 5 g/day thereafter) and was evaluated after four weeks. […] Medication was reduced to 3 g/day, and the patient was instructed to stop medication about two weeks later.

[5] = tested on: ataxia with oculomotor apraxia type 4 patients; assay: Case study, ataxia with oculomotor apraxia type 4; assay type: in vivo, human; details: AOA4 youngest sibling; on treatment
Source text: In this case study, four patients (male siblings) suffered from, and were later diagnosed with, ataxia with oculomotor apraxia type 4. The older three siblings […], at the time of disease onset. […] The older siblings began treatment with acetyl-leucine […], respectively, and have been on the treatment for approximately four years. No long-term clinical data is available for these three patients.
The youngest sibling was […] at the time of onset. […] No long-term clinical data is available for the youngest sibling.

[6] = after 1 week on acetyl-DL-leucine
[7] = after 4 weeks on acetyl-DL-leucine

## CC(=O)NC(CC(C)C)C(=O)O (racemic) [acetyl-DL-leucine]
Npc1−/− and Npc1+/+ mice
  Gait vs untreated littermates: significantly improved gait
[1]; fibroblasts from NPC patient of mild clinical severity
  LysoTracker fluorescence (lysosomal volume): significant decrease in LysoTracker fluorescence
[1]; fibroblasts from additional NPC patients of variable clinical severity, 72 hours
  LysoTracker fluorescence (lysosomal volume): replicated
[2]; p<0.001 vs untreated
  Average step cycle time: significantly faster average step cycle times
[2]; p<0.01 vs untreated
  Hind step cycle time: significantly faster hind step cycle times
[2]; p<0.05 vs untreated
  Front step cycle time: significantly faster front step cycle times
[3]; 5 gram per day, approximately one month of treatment
  Gait: significant improvement of gait
[3]; re-examined 13 days after stopping
  Symptoms after suspension of treatment: symptoms worsened
[3]; under therapy
  Speech: improvement of speech
[3]; under therapy, before 2-3 falls per month
  Falls: falls stopped
SCA 1 patient; 5 g/day, three weeks on medication
  Symptoms: all symptoms significantly improved
SCA 1 patient; over two years on the same dosage
  Side-effects: without any side-effects
SCA 1 patient; two weeks after medication was stopped
  Intensity of signs and symptoms after stopping: the same as before therapy
[4]; 5 g/day, after four weeks
  Patient report: increased fatigue and a deterioration of balance and speech
[4]; [6]
  Coefficient of variation (temporal): 9.1
  Double stance: 36.1%
  Max. speed: 92 cm/s
  Step cycle length: 81 cm
  Track width: 4.6 cm
  cadence: 81 steps/minute
  speed: 55 cm/s
[4]; [7]
  Coefficient of variation (temporal): 8.8
  Double stance: 38.7%
  Functional Gait Assessment: 11/30
  Max. speed: 74 cm/s
  Step cycle length: 79 cm
  Track width: 6.7 cm
  cadence: 85 steps/minute
  speed: 56 cm/s
[4]; decreased dose 3 g/day, re-evaluated about one month after ceasing
  Patient report: did not report improvement of symptomatology
[5]
  Mother's report compared to older siblings at each age: improved fine motor skills and improved speech
